In BindingDB's records for doi:10.1016/S1074-5521(01)00067-9 (University of California San Francisco, 2001):

Key:
Experiment in all cases: Inhibition Assay
Thymidylate synthase [1] = target: T1, Thymidylate synthase (Lacticaseibacillus casei, UniProt P00469)
T1 sequence (P00469 whole entry): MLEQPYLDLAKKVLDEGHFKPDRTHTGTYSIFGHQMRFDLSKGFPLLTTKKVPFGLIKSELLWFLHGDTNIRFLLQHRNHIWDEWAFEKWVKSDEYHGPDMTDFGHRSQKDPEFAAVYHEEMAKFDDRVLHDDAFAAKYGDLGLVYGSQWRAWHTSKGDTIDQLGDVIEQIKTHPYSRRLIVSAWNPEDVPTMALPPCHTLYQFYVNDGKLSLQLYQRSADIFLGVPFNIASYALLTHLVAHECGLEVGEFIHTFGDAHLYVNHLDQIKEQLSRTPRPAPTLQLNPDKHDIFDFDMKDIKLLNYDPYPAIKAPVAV
Source text: (§1) Affinity assay of specificities of thymidylate synthase (TS)inhibitors

Thymidylate synthase [2] = target: Thymidylate synthase (Escherichia coli (strain K12), UniProt P0A884)
Thymidylate synthase (Escherichia coli (strain K12), UniProt P0A884), sequence (P0A884 whole entry): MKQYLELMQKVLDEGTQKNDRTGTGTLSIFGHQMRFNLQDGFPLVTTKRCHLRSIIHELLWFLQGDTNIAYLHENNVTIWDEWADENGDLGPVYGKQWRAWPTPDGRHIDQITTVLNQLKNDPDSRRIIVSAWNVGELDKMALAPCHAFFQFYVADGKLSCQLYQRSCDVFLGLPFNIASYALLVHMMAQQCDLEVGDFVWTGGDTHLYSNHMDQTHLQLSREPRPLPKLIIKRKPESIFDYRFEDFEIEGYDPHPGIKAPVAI
Source text: as §1

Thymidylate synthase [3] = target: Thymidylate synthase (Homo sapiens, UniProt P04818)
Thymidylate synthase (Homo sapiens, UniProt P04818), sequence (P04818 whole entry): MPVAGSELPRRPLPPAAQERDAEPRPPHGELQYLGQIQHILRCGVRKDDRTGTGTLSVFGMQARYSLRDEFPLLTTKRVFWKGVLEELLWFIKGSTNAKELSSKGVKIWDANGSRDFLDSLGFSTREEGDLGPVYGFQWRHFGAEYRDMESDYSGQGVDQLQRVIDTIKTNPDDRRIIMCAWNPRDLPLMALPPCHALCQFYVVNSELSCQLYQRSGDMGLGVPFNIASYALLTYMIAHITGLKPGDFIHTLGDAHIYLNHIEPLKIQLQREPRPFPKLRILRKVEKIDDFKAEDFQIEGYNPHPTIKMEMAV
Source text: as §1

Compound	IC50 (Thymidylate synthase [1]) [µM]	IC50 (Thymidylate synthase [2]) [µM]	IC50 (Thymidylate synthase [3]) [µM]
NC(Cc1ccc(OC(=O)c2ccc3ccccc3c2)cc1)C(=O)O (centres undefined) [2-naphthylcarbonyl]	70		
CN(C)c1ccc(/N=N\c2ccc(S(=O)(=O)Oc3ccc(CC(N)C(=O)O)cc3)cc2)cc1 (centres undefined) [4'-(dimethylamino)azobenzene-4-sulfonyl]	> 100		
CN(C)c1cccc2c(S(=O)(=O)NN)cccc12 [5-(dimethylamino)naphthalene-1-sulfonohydrazide]	458	1110	36

Continued, values first:

IC50 (Thymidylate synthase [1]) [µM]	IC50 (Thymidylate synthase [2]) [µM]	IC50 (Thymidylate synthase [3]) [µM]	Compound
53			CCCCN(CCCC)c1cccc2c(S(=O)(=O)Oc3ccc(CC(N)C(=O)O)cc3)cccc12 (centres undefined)
4.7			NC(Cc1ccc(OS(=O)(=O)c2ccc3ccccc3c2)cc1)C(=O)O (centres undefined) [2-naphthylsulfonyl]
	1170	771	CN(C)c1cccc2c(S(=O)(=O)Oc3ccc(CC(N)C(=O)O)cc3)cccc12 [Dansyl derivatives 1A, (S) isomer]
